This data set is described as follows: Solubility of carvedilol in Pharmasolve. The format is physicochemical. The note with it: solvent Pharmasolve (N-methyl-2-pyrrolidone).

Regarding `COc1ccccc1OCCNCC(O)COc1cccc2[nH]c3ccccc3c12` (racemic) [carvedilol], the “solubility of carvedilol in Pharmasolve” value is reported as 1.6 gram of drug per gram of pharmasolve.

The values are drawn from patent US20060094771A1, “Carvedilol pharmasolve solvate” (priority 2002, published 2006).
